Test results reported in publication PMC9841589, “Identification of 2-Aminoacyl-1,3,4-thiadiazoles as Prostaglandin E2 and Leukotriene Biosynthesis Inhibitors” (ACS Medicinal Chemistry Letters, 2022).
Like-named read-outs stand apart in the source and are kept apart here.

Legend:
[1] = tested on: 5-LO product formation in intact neutrophils (PMNL); assay: Determination of 5-LO products in neutrophils; type: cell-based; conditions: Homo sapiens
Method: Figure S3. Concentration-response curves for inhibition of 5-LO product formation in neutrophils.
Cells were pre-incubated with compounds 3, 6, 7 and 9 or 0.1% DMSO over 10 min at 37 °C, and then stimuli were added. On the left (A,C, E, G), cells were stimulated with 2.5 µM Ca 2+-ionophore A23187 over 10 min; on the right (B, D, F, H), cells were stimulated with 2.5 µM Ca 2+-ionophore A23187 plus 20 µM arachidonic acid over 10 min. Data are expressed as percentage of uninhibited control (100%), means, S.E.M., n = 3. […]
Determination of 5-LO products in neutrophils
Freshly isolated neutrophils were resuspended in PBS buffer containing 0.1% glucose and 1 mM CaCl2 to a final cell density of 5 × 10 6. Cells were pre-incubated with compounds 3, 6, 7, 9 or DMSO vehicle (0.1%) at 37 °C for 10 min. Then, 2.5 µM Ca 2+-ionophore A23187 (with or without supplementation of 20 µM of arachidonic acid) was added as stimulus, and cells were left at 37 °C for 10 min. 1 mL of ice-cold methanol was used to stop the reaction of 5-LO product formation on ice, and 530 µL of PBS plus HCl and PGB 1 (as internal standard) were added. Finally, cells were centrifuged (2000 x g) over 10 min at room temperature, and 5-LO products were extracted by solid-phase extraction, and they were quantified by RP-HPLC as described above. […]

COX-2 = molecular target: T1, COX-2 (Homo sapiens, UniProt P35354); assay: Cell-free COXs activity assay, COX-2; type: biochemical; conditions: percentage of uninhibited control (100%), n = 3, n.i.: no inhibitory activity observed, read-out: COX-2 residual activity (%)
T1 sequence (P35354 18-604): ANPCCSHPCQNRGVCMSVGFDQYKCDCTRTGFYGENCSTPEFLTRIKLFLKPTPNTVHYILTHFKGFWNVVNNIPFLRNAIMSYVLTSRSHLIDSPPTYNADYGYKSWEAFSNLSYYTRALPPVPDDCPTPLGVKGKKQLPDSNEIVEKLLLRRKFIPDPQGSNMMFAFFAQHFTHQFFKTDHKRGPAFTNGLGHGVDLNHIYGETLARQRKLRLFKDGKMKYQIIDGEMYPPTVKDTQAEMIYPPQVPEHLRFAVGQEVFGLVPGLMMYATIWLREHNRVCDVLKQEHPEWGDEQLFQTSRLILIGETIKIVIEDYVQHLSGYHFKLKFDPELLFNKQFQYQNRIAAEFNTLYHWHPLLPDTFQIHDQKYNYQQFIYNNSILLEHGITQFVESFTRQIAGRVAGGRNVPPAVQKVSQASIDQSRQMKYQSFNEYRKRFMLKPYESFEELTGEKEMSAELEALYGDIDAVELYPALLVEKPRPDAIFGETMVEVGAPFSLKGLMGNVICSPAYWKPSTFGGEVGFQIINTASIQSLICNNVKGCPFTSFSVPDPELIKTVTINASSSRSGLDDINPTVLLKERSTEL
Method: Cell-free COXs activity assay
Isolated COX-1 (ovine) and COX-2 (human) were used for the evaluation of the activity of test compounds 3, 6, 7, and 9 on cyclooxygenases. COXs were diluted using Tris buffer (100 mM, pH = […]
8) plus 5 mM glutathione, 100 µM EDTA and 5 µM hemoglobin) to a final concentration of 50 U/mL for COX-1 and 20 U/mL for COX-2, and pre-incubated with test compounds 3, 6, 7, and 9 (10 µM) or vehicle (0.1% DMSO) over 5 min at rt. After 1 min at 37 °C, reactions were started after addition of arachidonic acid to a final concentration of 5 µM for COX-1 and 2 µM for COX-2. After 5 min at 37 °C, 1 mL of ice-cold methanol was added for stopping the reactions on ice. Then, PGB 1 as internal standard and 530 µl PBS plus HCl were added, and solid-phase extraction was performed as reported before.4-6, 17-19 COXs product formation (12-HHT) was determined using RP-HPLC. 4-6, 17-19 Indomethacin (10 µM) and celecoxib (5 µM) were used as reference drugs.
Expression, purification and activity assay of human recombinant sEH
Human recombinant sEH was expressed in Sf9 cells and was infected using a baculovirus, provided by Dr. B. Hammock, University of California, Davis, CA. After 72 hours, cells were pelleted and sonicated (3 × 10 sec) at 4 °C in lysis buffer (50 mM NaHPO 4, pH = 8, 300 mM NaCl, 10% glycerol, 1 mM EDTA, 1 mM phenylmethanesulfonyl fluoride, 10 µg/mL of leupeptin, and 60 µg/mL of soybean trypsin inhibitor). Lysates were centrifuged over 60 min at 4 °C (100,000 × g), and supernatants were collected and submitted to a benzylthio-sepharose-affinity chromatography for sEH purification by elution with 4-fluorochalcone oxide in PBS plus 1 mM DTT and 1 mM EDTA.720 […]
DMSO) for 15 min at rt. 50 µM 3-phenyl-cyano(6-methoxy-2-naphthalenyl)methyl ester-2-oxiraneacetic acid (PHOME), a non-fluorescent compound, was added for starting the reaction.
PHOME is enzymatically converted into a fluorescent compound, 6-methoxy-naphtaldehyde, detectable by using a spectrofluorometer setting λ em = 465 nm, λ ex = 330 nm. After 60 min, ZnSO 4

[2] = 2.5 µM A23187, n = 3, read-out: 5-LO product formation on PMNL, IC50 value ± SEM, stimulus: A23187
[3] = 2.5 µM A23187 plus 20 μM arachidonic acid, n = 3, read-out: 5-LO product formation on PMNL, IC50 value ± SEM, stimulus: A23187 + AA

SMILES | IC50 [1, 2] [µM] | IC50 [1, 3] [µM] | remaining activity at 10 µM (COX-2) [%]
O=C(Nc1nnc(-c2ccc(-c3cccc(O)c3)cc2)s1)c1ccccc1Br [compound 3] | 4.9 ± 0.5 | 5.2 ± 1.2 | 65.4
Nc1ccccc1-c1ccc(-c2nnc(NC(=O)c3c(Cl)ccnc3Cl)s2)cc1 [compound 9] | 2.1 ± 0.3 | 4.2 ± 0.3 | 72.7
Nc1ccccc1-c1ccc(-c2nnc(NC(=O)c3ccccc3Br)s2)cc1 [compound 7] | 4.2 ± 1.4 | 2.3 ± 0.8 | 194
Cc1cc(C(=O)Nc2nnc(-c3ccc(-c4ccccc4N)cc3)s2)cc(Cl)n1 [compound 6] | 4.8 ± 1.9 | 6.9 ± 2.2 | 83.1
